# Assay results: paper PMC9666459, “Crystal structure of semi-synthetic obelin-v after calcium induced bioluminescence implies coelenteramine as the main reaction product” (Scientific Reports, 2022)
# Columns and labels:
# [1] = target: T1, obelin (apo-obelin; obelin-v when charged with CTZ-v) (Obelia longissima, UniProt Q27709); assay: charging of apo-obelin, Ca2+ discharge, then fluorescence and structure of discharged protein; format: biochemical; details: O2, Ca2+; charging overnight with twofold molar excess in 5 mM EDTA, 10 mM DTT, 20 mM Tris-HCl pH 7.2, 4 °C
# T1 construct: Ca2+-discharged form; two molecules per asymmetric unit
# T1 sequence (Q27709 1-195): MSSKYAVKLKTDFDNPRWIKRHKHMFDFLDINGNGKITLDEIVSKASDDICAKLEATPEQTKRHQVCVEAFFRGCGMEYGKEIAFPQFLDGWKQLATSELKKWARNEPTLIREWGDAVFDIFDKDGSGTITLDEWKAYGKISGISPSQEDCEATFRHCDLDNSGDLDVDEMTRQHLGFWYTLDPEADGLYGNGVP
# [2] = target: T1, obelin (apo-obelin; obelin-v when charged with CTZ-v); assay: charging of apo-obelin, Ca2+ discharge, then fluorescence of discharged protein; format: biochemical; details: O2, Ca2+; charging overnight with twofold molar excess in 5 mM EDTA, 10 mM DTT, 20 mM Tris-HCl pH 7.2, 4 °C
Compound,"charging of apo-obelin, Ca2+ discharge, then fluorescence and structure of disch [1]","charging of apo-obelin, Ca2+ discharge, then fluorescence of discharged protein [2]"
O=c1c(Cc2ccc(O)cc2)nc2c(Cc3ccccc3)[nH]c3c4ccc(O)cc4ccc3n1-2 [CTZ-v],apo-obelin was incubated overnight with a twofold molar excess of CTZ or CTZ-v,–
Oc1ccc(Cc2nc3c(Cc4ccccc4)nc(-c4ccc(O)cc4)cn3c2O)cc1 [CTZ],–,apo-obelin was incubated overnight with a twofold molar excess of CTZ or CTZ-v
